ChEMBL document CHEMBL1201862, “PubChem BioAssay data set” (2004)
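The compound was tested at five concentrations on cells cultured in 96-well plates, with a 48-hour exposure period. Abbreviation: GI50, concentration required for 50% inhibition of growth.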 The source made the active and inactive calls. No stated cut-off is given here; in the data, active = GI50 up to about 1.1 µM and inactive = higher.

Assays:
Test in all cases: NCI tumour cell line growth inhibition, 48 h
HCT-116 = test system: HCT-116
SW-620 = test system: SW-620
UO-31 = test system: UO-31
SK-OV-3 = test system: SK-OV-3
DMS-114 = test system: DMS-114
KM-20L2 = test system: KM-20L2
SNB-78 = test system: SNB-78
K562 = test system: K562
OVCAR-8 = test system: OVCAR-8
A549 = test system: A549
RPMI-8226 = test system: RPMI-8226
IGROV-1 = test system: IGROV-1
M19-MEL = test system: M19-MEL
HCT-15 = test system: HCT-15
OVCAR-4 = test system: OVCAR-4
SK-MEL-28 = test system: SK-MEL-28
COLO 205 = test system: COLO 205
OVCAR-3 = test system: OVCAR-3
U-251 = test system: U-251
SK-MEL-2 = test system: SK-MEL-2
MOLT-4 = test system: MOLT-4
HOP-18 = test system: HOP-18
SNB-75 = test system: SNB-75
UACC-62 = test system: UACC-62
NCI-H460 = test system: NCI-H460
HOP-92 = test system: HOP-92
NCI-H226 = test system: NCI-H226
SF-295 = test system: SF-295
EKVX = test system: EKVX
DMS-273 = test system: DMS-273
OVCAR-5 = test system: OVCAR-5
HCC 2998 = test system: HCC 2998
HL-60 = test system: HL-60
A498 = test system: A498
KM12 = test system: KM12
SNB-19 = test system: SNB-19
HOP-62 = test system: HOP-62
CAKI-1 = test system: CAKI-1
DLD-1 = test system: DLD-1
HT-29 = test system: HT-29
MCF7 = test system: MCF7
UACC-257 = test system: UACC-257
SF-268 = test system: SF-268
NCI-H23 = test system: NCI-H23
Malme-3M = test system: Malme-3M
RXF 393 = test system: RXF 393
CCRF-CEM = test system: CCRF-CEM
SF-539 = test system: SF-539
NCI-H522 = test system: NCI-H522
SK-MEL-5 = test system: SK-MEL-5
SN12C = test system: SN12C
NCI/ADR-RES = test system: NCI/ADR-RES
LOX IMVI = test system: LOX IMVI
ACHN = test system: ACHN
TK-10 = test system: TK-10
SR = test system: SR
786-0 = test system: 786-0
M14 = test system: M14

Measured: GI50

COC(=O)[C@@H](O)[C@](O)(CCC(C)C)C(=O)O[C@@H]1C(OC)=C[C@]23CCCN2CCc2cc4c(cc2[C@H]13)OCO4
1.68 µM: HCT-15
active: HCT-116 0.407 µM | DMS-114 0.265 µM | K562 0.659 µM | A549 0.951 µM | IGROV-1 1.07 µM | OVCAR-4 1.06 µM | SK-MEL-28 0.518 µM | U-251 0.869 µM | MOLT-4 0.32 µM | NCI-H460 0.325 µM | HOP-92 1.05 µM | DMS-273 0.585 µM | HCC 2998 0.233 µM | HL-60 0.349 µM | SNB-19 0.373 µM | HOP-62 0.575 µM | DLD-1 1 µM | HT-29 0.891 µM | MCF7 0.351 µM | SF-268 0.984 µM | Malme-3M 0.459 µM | RXF 393 0.689 µM | SF-539 0.673 µM | NCI-H522 0.598 µM | LOX IMVI 0.562 µM
inactive: SW-620 2.21 µM | UO-31 1.5 µM | SK-OV-3 1.17 µM | KM-20L2 1.5 µM | SNB-78 2.59 µM | OVCAR-8 1.88 µM | RPMI-8226 1.34 µM | M19-MEL 1.18 µM | COLO 205 1.29 µM | OVCAR-3 1.24 µM | SK-MEL-2 2.19 µM | HOP-18 2.46 µM | SNB-75 1.62 µM | UACC-62 3.9 µM | NCI-H226 1.64 µM | SF-295 1.53 µM | EKVX 1.71 µM | OVCAR-5 3.24 µM | A498 1.48 µM | KM12 1.26 µM | CAKI-1 1.77 µM | UACC-257 1.82 µM | NCI-H23 1.55 µM | CCRF-CEM 1.51 µM | SK-MEL-5 1.48 µM | SN12C 2.36 µM | NCI/ADR-RES 11.8 µM

CN1CCOC(C(NC(=O)c2ccccc2)c2ccccc2)C1=O (stereo not drawn)
> 100 µM: HCT-15
inactive: HCT-116 > 100 µM | SW-620 > 100 µM | UO-31 > 100 µM | SK-OV-3 > 100 µM | KM-20L2 > 100 µM | SNB-78 > 100 µM | K562 > 100 µM | OVCAR-8 > 100 µM | A549 > 100 µM | RPMI-8226 > 100 µM | ACHN > 100 µM | IGROV-1 > 100 µM | M19-MEL > 100 µM | OVCAR-4 > 100 µM | TK-10 > 100 µM | SK-MEL-28 > 100 µM | SR > 100 µM | COLO 205 > 100 µM | OVCAR-3 > 100 µM | U-251 > 100 µM | 786-0 > 100 µM | SK-MEL-2 > 100 µM | MOLT-4 > 100 µM | HOP-18 > 100 µM | SNB-75 24.3 µM | UACC-62 > 100 µM | NCI-H460 > 100 µM | HOP-92 > 100 µM | NCI-H226 > 100 µM | SF-295 > 100 µM | EKVX > 100 µM | DMS-273 > 100 µM | OVCAR-5 > 100 µM | HCC 2998 > 100 µM | HL-60 > 100 µM | A498 > 100 µM | KM12 > 100 µM | SNB-19 > 100 µM | HOP-62 > 100 µM | CAKI-1 > 100 µM | DLD-1 > 100 µM | HT-29 > 100 µM | M14 > 100 µM | UACC-257 > 100 µM | SF-268 > 100 µM | NCI-H23 > 100 µM | Malme-3M > 100 µM | RXF 393 > 100 µM | CCRF-CEM > 100 µM | SF-539 > 100 µM | NCI-H522 > 100 µM | SK-MEL-5 > 100 µM | SN12C > 100 µM | LOX IMVI > 100 µM
